From patent US20230263822A1, “MODULATION OF FACTOR 11 EXPRESSION” (Ionis Pharmaceuticals, Inc., priority 2008, published 2023)
“Also recorded” adds a separate entry of the source.

Columns and labels:
platelet factor-4 (PF-4) [1] = assay: Factor 7a protein antidote: PF-4 in FeCl3 induced VT model (Example 24); type: in vivo, BALB/c mice; conditions: ISIS 404071 20 mg/kg s.c. twice a week for 3 weeks; human Factor 7a 5 μg/kg fifteen minutes before FeCl3 where given
Method: The effect of human Factor 7a (Factor VIIa) protein as an antidote for ISIS 404071 was tested in BALB/c mice. […] Thrombus formation was induced with FeCl3 in all of the mice except the first control group. Fifteen minutes before FeCl3 treatment, the first experimental group was treated with 5 μg/kg of human Factor 7a protein antidote (product no. 407act, American Diagnostica Inc.). Two days after their last dose, all mice were anesthetized with 150 mg/kg of ketamine mixed with 10 mg/kg of xylazine administered by intraperitoneal injection.
(§1) In mice undergoing FeCl3 treatment, thrombus formation was induced by applying a piece of filter paper (2×4 mm) pre-saturated with 10% FeCl3 solution directly on the vena cava. After 3 minutes of exposure, the filter paper was removed. Thirty minutes after the filter paper application, a fixed length of the vein containing the thrombus was dissected out for platelet analysis.
Real-time PCR quantification of platelet factor-4 (PF-4) was used to quantify platelets in the vena cava as a measure of thrombus formation. Results are presented as a percentage of PF-4 in antidote treated and untreated mice, as compared to the two PBS-treated control groups.

mouse Factor 11 mRNA = assay: Sense-oligonucleotide antidote: Factor 11 mRNA in liver (Example 23); type: in vivo, BALB/c mice; conditions: for Percent inhibition of mouse Factor 11 mRNA compared to PBS control: antisense 40 mg/kg s.c. twice a week for three weeks, ISIS 418026 90 mg/kg single injection where given
Method: The effect of the specific sense oligonucleotide to ISIS 404071 as an antidote was tested in BALB/c mice. In a first cohort, ISIS 404071 was administered subcutaneously to BALB/c mice twice a week for three weeks at a dose of 40 mg/kg. In a second cohort, ISIS 404057 was administered subcutaneously to BALB/c mice twice a week for three weeks at a dose of 40 mg/kg. The ISIS 404071 specific antidote, ISIS 418026 ([…]; complementary to ISIS 404071), incorporated herein as SEQ ID NO: 13, was administered to both cohorts subcutaneously in a single injection of 90 mg/kg 48 hours after the final treatment of ISIS 404071 or 404057. In a third cohort, ISIS 404071 was administered subcutaneously to BALB/c mice twice a week for three weeks at a dose of 40 mg/kg. Following the last treatment of ISIS 404071, mice were injected subcutaneously injected with PBS. In a fourth cohort, ISIS 404057 was administered subcutaneously to BALB/c mice twice a week for three weeks at a dose of 40 mg/kg. Following the last treatment of ISIS 404057, mice were injected subcutaneously injected with PBS. Following antidote administration, a set of 4 mice from each cohort were sacrificed at 12 hours, 1 day, 2 days, 3 days, 7 days, and 14 days. Whole liver was collected for RNA analysis and PPP was collected for aPTT analysis.
RNA was extracted from liver tissue for real-time PCR analysis of Factor 11. Results are presented as percent inhibition of Factor 11, relative to PBS control.

platelet factor-4 (PF-4) [2] = assay: Thrombus formation by PF-4 real-time PCR, FeCl3 induced venous thrombosis model vs Apixaban (Example 14); type: in vivo, BALB/c mice; conditions: for PF-4 in vena cava, percentage as compared to PBS controls (thrombus formation): + FeCl3
Method: ISIS 404071 and Apixaban were evaluated in the FeCl3 induced VT mouse model. […] Two days after receiving the last dose of ISIS 404071, mice were anesthetized with 150 mg/kg ketamine mixed with 10 mg/kg xylazine administered by intraperitoneal injection. […] Twenty minutes after receiving Apixaban, mice were anesthetized with 150 mg/kg ketamine mixed with 10 mg/kg xylazine administered by intraperitoneal injection. […] Two days after the last dose of PBS, mice in both groups were anesthetized with 150 mg/kg ketamine mixed with 10 mg/kg xylazine administered by intraperitoneal injection. Thrombus formation was induced with FeCl3 in all of the mice except the first control group.
as §1, with “analysis. Liver was collected for RNA analysis.” for “analysis.”
Real-time PCR quantification of platelet factor-4 (PF-4) was used to quantify platelets in the vena cava as a measure of thrombus formation. […] Results are presented as a percentage of PF-4 in ISIS 404071 or Apixaban treated mice, as compared to the two PBS-treated control groups.

blood coagulation = assay: Ex vivo PT and aPTT in murine plasma, ISIS 404071 with LOVENOX (Example 16); parameters: species or system BALB/c mice; conditions: for PT INR in murine plasma / aPTT INR in murine plasma: LOVENOX 0
Method: A control mouse group was treated with PBS, administered twice a week for 3 weeks. Five days after the last dose, the mice were sacrificed and plasma was collected. The low-molecular-weight (LMW) heparin, LOVENOX, was administered to the plasma ex vivo at varying concentrations of 0 μg/ml, 2.5 μg/ml, 5.0 μg/ml, and 7.5 μg/ml. PT and aPTT were measured 20 minutes after LOVENOX was administered.

murine Factor 11 mRNA = assay: Time course of Factor 11 mRNA reduction in liver after one dose (Example 29); type: in vivo; conditions: BALB/c mice, one s.c. dose of 50 mg/kg, 12 hours to 56 days
Method: One dose of 50 mg/kg ISIS 404071 was administered subcutaneously to BALB/c mice. Following ISIS 404071 administration, mice were sacrificed at 12 hours, 1 day, 2 days, 3 days, 4 days, 7 days, 14 days, 28 days, and 56 days. Whole liver was collected for RNA analysis and PPP was collected for aPTT analysis. A control group of mice was treated with one subcutaneous dose of PBS.
RNA was extracted from liver tissue for real-time PCR analysis of Factor 11. Results are presented relative to PBS control. […] Mice began regaining Factor 11 mRNA expression by day 14.

[3] = ISIS 404071 10 mg/kg s.c. twice a week for 3 weeks
[4] = ISIS 404071 20 mg/kg s.c. twice a week for 3 weeks
[5] = ISIS 404071 40 mg/kg s.c. twice a week for 3 weeks
[6] = murine plasma, ISIS 404071 10-40 mg/kg in vivo, LOVENOX 0-7.5 μg/ml ex vivo

ISIS 404071: antisense oligonucleotide targeted to murine Factor 11 mRNA, TGGTAATCCACTTTCAGAGG, target start site 869 (chemistry not given here)
PF-4 in vena cava, percentage as compared to PBS controls (thrombus formation) (platelet factor-4 (PF-4) [1]): 18% | Percent inhibition of mouse Factor 11 mRNA compared to PBS control (mouse Factor 11 mRNA; 12 hours after antidote/PBS): 93% | Percent inhibition of mouse Factor 11 mRNA compared to PBS control (mouse Factor 11 mRNA; 1 day after antidote/PBS): 90% | Percent inhibition of mouse Factor 11 mRNA compared to PBS control (mouse Factor 11 mRNA; 2 days after antidote/PBS): 89% | Percent inhibition of mouse Factor 11 mRNA compared to PBS control (mouse Factor 11 mRNA; 3 days after antidote/PBS): 88% | Percent inhibition of mouse Factor 11 mRNA compared to PBS control (mouse Factor 11 mRNA; 7 days after antidote/PBS): 81% | Percent inhibition of mouse Factor 11 mRNA compared to PBS control (mouse Factor 11 mRNA; 14 days after antidote/PBS): 67% | inhibition of Factor 11 mRNA over the 14 day observation period (mouse Factor 11 mRNA; BALB/c mice, ISIS 404071 40 mg/kg, with or without ISIS 418026 90 mg/kg): progressive decrease in inhibition | PF-4 in vena cava as measure of thrombus formation (platelet factor-4 (PF-4) [2]; FeCl3 induced VT model, vs PBS control): resulted in reduction of PF-4 | PF-4 in vena cava, percentage as compared to PBS controls (thrombus formation) (platelet factor-4 (PF-4) [2]; ISIS 404071 1.25 mg/kg subcutaneously twice a week for 3 weeks): 42% | PF-4 in vena cava, percentage as compared to PBS controls (thrombus formation) (platelet factor-4 (PF-4) [2]; ISIS 404071 5 mg/kg subcutaneously twice a week for 3 weeks): 60% | PF-4 in vena cava, percentage as compared to PBS controls (thrombus formation) (platelet factor-4 (PF-4) [2]; ISIS 404071 10 mg/kg subcutaneously twice a week for 3 weeks): 28% | PF-4 in vena cava, percentage as compared to PBS controls (thrombus formation) (platelet factor-4 (PF-4) [2]; ISIS 404071 25 mg/kg subcutaneously twice a week for 3 weeks): 14% | PF-4 in vena cava, percentage as compared to PBS controls (thrombus formation) (platelet factor-4 (PF-4) [2]; ISIS 404071 50 mg/kg subcutaneously twice a week for 3 weeks): 4% | PT INR in murine plasma (blood coagulation; [3]): 0.97 INR | aPTT INR in murine plasma (blood coagulation; [3]): 1.14 INR | PT INR in murine plasma (blood coagulation; [4]): 1.00 INR | aPTT INR in murine plasma (blood coagulation; [4]): 1.28 INR | PT INR in murine plasma (blood coagulation; [5]): 0.97 INR | aPTT INR in murine plasma (blood coagulation; [5]): 1.52 INR | PT (blood coagulation; [6]): does not significantly increase PT | aPTT (blood coagulation; [6]): also increases aPTT in a dose-dependent manner | Factor 11 mRNA expression in liver over time (murine Factor 11 mRNA): significant Factor 11 mRNA down-regulation by day 1; also recorded: regained full Factor 11 mRNA expression by day 28; also recorded: did not experience a rebound effect
